The values below come from ChEMBL document CHEMBL1125996, “Avermectin analogs with a spacer between the aglycone and the disaccharide” (1991).

Assay [1] has as its system Artemia salina. The experiment in a line: Compound was tested for its inhibitory activity using brine shrimp (Artemia salina) immobilization assay; highest level tested, showed <100% activity. It is filed as functional.
In assay [2] the test system is Artemia salina. Nature of the assay: Compound was tested for its inhibitory activity using brine shrimp (Artemia salina) immobilization assay. Type of assay: functional.

For the molecule `CC[C@H](C)[C@H]1O[C@]2(CC[C@@H]1C)C[C@@H]1C[C@@H](C/C=C(\C)[C@@H](OC(=O)OCCO[C@H]3C[C@H](OC)[C@@H](O[C@H]4C[C@H](OC)[C@@H](O)[C@H](C)O4)[C@H](C)O3)[C@@H](C)/C=C/C=C3\CO[C@@H]4[C@H](O)C(C)=C[C@@H](C(=O)O1)[C@]34O)O2`, the IC100 with Artemia salina [1] was greater than 55500 ng/mL. Consider `CC[C@H](C)[C@H]1O[C@]2(CC[C@@H]1C)C[C@@H]1C[C@@H](C/C=C(\C)[C@@H](OCOCCO[C@H]3C[C@H](OC)[C@@H](O[C@H]4C[C@H](OC)[C@@H](O)[C@H](C)O4)[C@H](C)O3)[C@@H](C)/C=C/C=C3\CO[C@@H]4[C@H](O)C(C)=C[C@@H](C(=O)O1)[C@]34O)O2`, for which the IC100 with Artemia salina [2] amounted to 27800 ng/mL. Turning to `CC[C@H](C)[C@H]1O[C@]2(CC[C@@H]1C)C[C@@H]1C[C@@H](C/C=C(\C)[C@@H](OCCO[C@H]3C[C@H](OC)[C@@H](O[C@H]4C[C@H](OC)[C@@H](O)[C@H](C)O4)[C@H](C)O3)[C@@H](C)/C=C/C=C3\CO[C@@H]4[C@H](O)C(C)=C[C@@H](C(=O)O1)[C@]34O)O2`, the IC100 in the assay on Artemia salina [2] came to 1730 ng/mL. Still for that read-out and setting: the figure for `CC[C@H](C)[C@H]1O[C@]2(CC[C@@H]1C)C[C@@H]1C[C@@H](C/C=C(\C)[C@@H](OCOCCO[C@@H]3C[C@H](OC)[C@@H](O[C@H]4C[C@H](OC)[C@@H](O)[C@H](C)O4)[C@H](C)O3)[C@@H](C)/C=C/C=C3\CO[C@@H]4[C@H](O)C(C)=C[C@@H](C(=O)O1)[C@]34O)O2` is 27800 ng/mL. Still for that read-out and setting: for `CC[C@H](C)[C@H]1O[C@]2(C=C[C@@H]1C)C[C@@H]1C[C@@H](C/C=C(\C)[C@@H](O[C@H]3C[C@H](OC)[C@@H](O[C@H]4C[C@H](OC)[C@@H](O)[C@H](C)O4)[C@H](C)O3)[C@@H](C)/C=C/C=C3\CO[C@@H]4[C@H](O)C(C)=C[C@@H](C(=O)O1)[C@]34O)O2` [ABAMECTIN COMPONENT B1A] the value was 430 ng/mL.

In the assay on Artemia salina [2], `CC[C@H](C)[C@H]1O[C@]2(CC[C@@H]1C)C[C@@H]1C[C@@H](C/C=C(\C)[C@@H](OCCO[C@@H]3C[C@H](OC)[C@@H](O[C@H]4C[C@H](OC)[C@@H](O)[C@H](C)O4)[C@H](C)O3)[C@@H](C)/C=C/C=C3\CO[C@@H]4[C@H](O)C(C)=C[C@@H](C(=O)O1)[C@]34O)O2` gave an IC100 of 1730 ng/mL. Still for that read-out and setting: for `CC[C@H](C)[C@H]1O[C@]2(CC[C@@H]1C)C[C@@H]1C[C@@H](C/C=C(\C)[C@@H](OC(=O)OCCO[C@@H]3C[C@H](OC)[C@@H](O[C@H]4C[C@H](OC)[C@@H](O)[C@H](C)O4)[C@H](C)O3)[C@@H](C)/C=C/C=C3\CO[C@@H]4[C@H](O)C(C)=C[C@@H](C(=O)O1)[C@]34O)O2` the value was 41650 ng/mL.
